Assay results as given in publication PMC12016938, “A small molecule PKCε inhibitor reduces hyperalgesia induced by paclitaxel or opioid withdrawal” (JCI Insight, 2025).
Where “and” joins values, the source holds several entries; their conditions need not be identical. Identical values can stand only once.

Legend:
PKCζ = target: T1, PKCζ (Homo sapiens, UniProt Q05513); assay: Lance-FRET kinase assay, PKCζ; format: biochemical; conditions: Figure 1B
T1 construct: purchased SignalChem Biotech
Protocol: Kinase assays. CP612 was assayed against His-AVI–tagged human PKCε (1 nM) produced in Sf9 cells, and ROCK1 (Carna Biosciences; 5 nM) using the Lance-FRET kinase assay system (PerkinElmer Revvity). Other human recombinant PKCs (SignalChem Biotech) were assayed in triplicate at the following concentrations: PKCβII 1.6 nM, PKCγ 500 pM, PKCδ 5 nM, PKCθ 500 pM, and PKCζ 500 pM. PKCs were incubated in a 15 μL reaction volume with kinase buffer (20 mM Tris-HCL [pH 7.4], 10 mM MgCl2, 0.25 mM EGTA, 0.1 mg/mL BSA, and 0.15% Triton X-100), 50 nM ULight-labeled CREBtide […] (PerkinElmer, TRF0107, Revvity), and test compound. […] After incubation at 27°C for another 60 minutes, phosphorylation was detected using a FlexStation 3 Microplate Reader (Molecular Devices) in LANCE TR-FRET mode (excitation = 340 nm, emission = 665 nm) and expressed as relative fluorescence units (RFU). The percentage of inhibition was calculated as: (signal without test compound − signal with test compound)/(signal without test compound − signal without ATP) × 100. […]
Kinase assays used 11-point concentration-response curves and results were analyzed by nonlinear regression using Prism 9 (GraphPad Software) to determine IC50 values. […] Scores for pain threshold, conditioned place preference, and self-administration were analyzed by ANOVA using the following factors. […]

[1] = system: morphine self-administration
[2] = system: conditioned place aversion; assay: Conditioned place aversion precipitated by naloxone; format: in vivo, DBA/2J mice; conditions: for Preference score: individual mice, time in environment paired with naloxone (5 mg/kg, i.p.) minus time in it at baseline, negative = aversion
Protocol: In addition to hyperalgesia, withdrawal from repeated administration of morphine produces somatic signs of withdrawal and conditioned place aversion. We tested the effects of CP612 on these responses. […] Two hours after this last injection of saline or morphine, mice were administered naloxone (5 mg/kg, i.p.) to precipitate somatic signs of withdrawal and conditioned place aversion. Withdrawal from repeated administration of morphine evoked somatic signs of withdrawal (Figure 11, A–C, and Supplemental Figure 2); only the highest dose of CP612 (40 mg/kg) reduced them (Figure 11, A–C) [H PKC inhibition (3, n = 62) = 33.34, P < 0.001]. Withdrawal from repeated administration of morphine also evoked conditioned place aversion (Figure 11, A and C) [F PKC inhibition (5,78) = 7.16, P < 0.001; mice receiving repeated administration of saline with vehicle versus mice receiving repeated administration of morphine with vehicle, P < 0.001], and this was not modified by CP612 at any dose tested (all P > 0.079).
The place conditioning apparatus was an acrylic box enclosed in light- and sound-attenuating, ventilated chambers (MED Associates). The box had 2 compartments separated by a removable sliding door. […] The dimensions of each compartment were 13.5 × 27 × 17 cm. Infrared light beams and photodetectors located along the walls of the box measured general activity and location of the mouse in each compartment, which were recorded using Activity Monitor version 7.0.5.10 software (Med Associates). On day 0 (pretest), drug-naive mice were acclimated for 15 minutes to the place conditioning apparatus without the sliding door, so they had free access to both compartments of the apparatus. This established a baseline side preference, based on the amount of time spent in each compartment. […] On day 6 (conditioning day), mice were pretreated with vehicle (10 mL/kg, i.p.) or CP612 (5, 10, 20, or 40 mg/kg, i.p.), followed by a single injection of morphine (100 mg/kg, i.p.) 4 hours later. Two hours after this last injection of morphine, mice were administered naloxone (5 mg/kg, i.p.), to precipitate withdrawal, and were immediately confined to 1 side of the conditioning apparatus for 20 minutes. During this conditioning period, mice were filmed (Raspberry Pi Camera) to assess somatic signs of withdrawal ([39]). Given the limited number of cameras and the poor quality of some videos, we were only able to film a subset of mice. The following behaviors were given a score of 1 per occurrence and episode: body shakes (paw tremors and wet dog shakes), teeth chatter, rearing, hopping, wall climbing, and backpedaling. These scores were summed to obtain a global withdrawal score and were obtained from an independent observer who was blind to the experimental conditions. A subset of videos was scored by 2 observers, to ensure internal validity (Cronbach’s α = 0.980, Correlation Observer r = 0.97, slope 1.15, P < 0.005). On day 7 (test day), mice were placed in the conditioning apparatus with free access to both compartments, for 15 minutes. We recorded the time spent in each compartment.

PKCη = target: T2, PKCη (Homo sapiens, UniProt P24723); assay: scanMax kinome panel, PKCη; format: binding; conditions: 200 nM CP612; read-out: scanMax % of control, PKCη
T2 construct: purchased Eurofins-DiscoverX
T2 sequence (P24723 whole entry): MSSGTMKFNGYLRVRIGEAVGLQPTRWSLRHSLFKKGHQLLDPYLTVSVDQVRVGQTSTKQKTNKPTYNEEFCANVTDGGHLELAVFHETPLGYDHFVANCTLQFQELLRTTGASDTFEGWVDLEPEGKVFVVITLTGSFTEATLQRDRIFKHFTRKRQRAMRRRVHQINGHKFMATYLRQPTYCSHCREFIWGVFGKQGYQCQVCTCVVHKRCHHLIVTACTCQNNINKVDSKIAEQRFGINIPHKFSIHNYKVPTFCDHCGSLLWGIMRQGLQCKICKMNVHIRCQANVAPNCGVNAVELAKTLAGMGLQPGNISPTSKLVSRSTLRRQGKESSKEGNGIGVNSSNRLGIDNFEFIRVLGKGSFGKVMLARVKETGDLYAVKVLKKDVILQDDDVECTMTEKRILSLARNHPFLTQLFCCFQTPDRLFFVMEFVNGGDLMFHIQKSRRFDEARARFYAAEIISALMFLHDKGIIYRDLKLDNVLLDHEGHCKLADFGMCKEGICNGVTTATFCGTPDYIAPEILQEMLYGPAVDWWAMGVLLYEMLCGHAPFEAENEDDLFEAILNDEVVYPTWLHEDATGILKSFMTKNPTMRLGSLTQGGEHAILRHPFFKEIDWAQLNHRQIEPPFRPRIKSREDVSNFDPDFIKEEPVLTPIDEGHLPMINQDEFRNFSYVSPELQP
Protocol: CP612 was screened for kinome specificity at 200 nM against 468 kinases using the scanMax assay panel from Eurofins-DiscoverX. CP612 inhibited 10 other WT kinases besides PKCε, all to < 10% of control: CLK1 (CDC Like Kinase 1), CLK4, PKN1 (Protein kinase N1), PKN2, PKCδ, PKCη, PKCθ, PRKG2 (Protein Kinase CGMP-Dependent 2), ROCK1, and ROCK2.

T1 sequence (Q05513 whole entry): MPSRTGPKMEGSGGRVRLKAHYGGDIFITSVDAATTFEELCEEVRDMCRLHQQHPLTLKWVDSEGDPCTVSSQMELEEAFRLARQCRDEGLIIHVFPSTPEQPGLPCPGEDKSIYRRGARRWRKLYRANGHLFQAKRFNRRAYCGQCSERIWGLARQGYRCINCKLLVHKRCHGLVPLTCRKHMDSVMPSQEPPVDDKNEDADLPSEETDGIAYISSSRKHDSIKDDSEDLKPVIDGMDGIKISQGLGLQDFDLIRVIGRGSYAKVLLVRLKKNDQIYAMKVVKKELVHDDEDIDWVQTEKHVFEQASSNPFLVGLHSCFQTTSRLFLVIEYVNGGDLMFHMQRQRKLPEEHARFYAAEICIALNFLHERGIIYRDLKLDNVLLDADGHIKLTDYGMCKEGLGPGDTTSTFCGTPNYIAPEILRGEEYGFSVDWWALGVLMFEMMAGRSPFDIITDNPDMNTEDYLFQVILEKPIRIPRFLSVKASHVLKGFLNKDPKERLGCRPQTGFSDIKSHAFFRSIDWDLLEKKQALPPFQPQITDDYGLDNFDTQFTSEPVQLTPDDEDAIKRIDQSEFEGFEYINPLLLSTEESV

**Q.** Which results are given for N[C@H](CNC(=O)C1(c2ccc(Cl)cc2)CCCC1)c1ccc(C(=O)Nc2ccncc2)cc1 [CP612]?
**A.** Inhibition of atypical PKCζ (PKCζ): did not inhibit; Effect on morphine self-administration (breaking point and self-infusions) ([1]; CP612 30 mg/kg i.p. 18 hours prior, 30 mg/kg): did not modify self-administration; Inf (avg last 3 days) ([1]; rats, morphine SA 18 h after CP612, average of last 3 days, infusions): 8 and 12; Preference score ([2]; Morphine + CP612 5 mg/kg): -0.0843 and -0.28 and -0.22 and -0.17 and -0.023 and -0.35; Preference score ([2]; Morphine + CP612 10 mg/kg): -0.07 and -0.22 and -0.42 and -0.21 and -0.19 and -0.38 and -0.15 and -0.12 and 0.14 and -0.13 and -0.10 and 0.0341 and -0.23; Preference score ([2]; Morphine + CP612 20 mg/kg): -0.0656 and -0.40 and -0.13 and -0.25 and -0.10 and -0.30 and -0.31; Preference score ([2]; Morphine + CP612 40 mg/kg): -0.17 and -0.18 and -0.35 and -0.39 and 0.000111 and -0.22 and 0.013 and -0.28 and -0.25 and -0.09 and -0.27; Effect on conditioned place aversion ([2]; male DBA/2J mice, CP612 5, 10, 20, 40 mg/kg i.p.): not modified; remaining binding at 0.2 µM (PKCη): < 10%
